Assay results: patent US8815881B2 (Hoffmann-La Roche Inc., priority 2010, dated 2014)
Structures can show the parent of a compound that is named as a salt.

What follows are compounds tested against endogenous cellular BACE2 in the Ins1e rat cell line (Rattus norvegicus (Rat), UniProt Q6IE75) (assay: Assay for BACE inhibition by measuring cellular TMEM27 cleavage (ELISA of shed hTMEM27 from INS-TMEM27 cells)). Settings: assay a): cellular TMEM27 cleavage, INS-TMEM27 cells (superscript a).
Type: cell-based
Outline: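 Shed human TMEM27 is quantified by ELISA in medium of TetOn INS1e cells after 46 h at 37 °C. Compound is dosed across a concentration range, followed 2 h later by doxycycline induction at 500 ng/ml. Each concentration's readout is curve-fitted to give the EC50.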

Chain of endogenous cellular BACE2 in the Ins1e rat cell line (Q6IE75 63-514): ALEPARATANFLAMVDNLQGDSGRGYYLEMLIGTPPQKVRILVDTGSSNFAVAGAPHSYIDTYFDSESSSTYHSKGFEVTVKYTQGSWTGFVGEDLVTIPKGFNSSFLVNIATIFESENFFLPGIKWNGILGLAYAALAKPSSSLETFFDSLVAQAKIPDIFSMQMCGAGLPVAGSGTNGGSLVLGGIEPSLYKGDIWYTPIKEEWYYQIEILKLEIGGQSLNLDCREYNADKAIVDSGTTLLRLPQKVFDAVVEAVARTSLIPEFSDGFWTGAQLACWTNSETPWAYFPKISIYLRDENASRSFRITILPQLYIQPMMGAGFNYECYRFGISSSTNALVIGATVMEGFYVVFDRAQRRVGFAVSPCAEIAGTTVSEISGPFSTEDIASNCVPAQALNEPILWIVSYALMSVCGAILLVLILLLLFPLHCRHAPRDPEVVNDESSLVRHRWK

Row | IC50 | Structure (SMILES)
1 | 45 nM | Cc1nc(CNc2ccc(F)c([C@@]3(C)N=C(N)N(C)C(=O)C3(C)C)c2)co1 [Example 109, (S)-2-Amino-6-{2-fluoro-5-[(2-methyl-oxazol-4-ylmethyl)-amino]-phenyl}-3,5,5,6-tetramethyl-5,6-dihydro-3H-pyrimidin-4-one]
2 | 391 nM | Cc1cn[nH]c1CNc1ccc(F)c([C@@]2(C)N=C(N)N(C)C(=O)C2(C)C)c1 [Example 110, (S)-2-Amino-6-{2-fluoro-5-[(4-methyl-2H-pyrazol-3-ylmethyl)-amino]-phenyl}-3,5,5,6-tetramethyl-5,6-dihydro-3H-pyrimidin-4-one]
3 | 46 nM | CC(Nc1ccc(F)c([C@@]2(C)N=C(N)N(C)C(=O)C2(C)C)c1)c1ccn[nH]1 (stereo partly drawn) [Example 111, (S)-2-Amino-6-{2-fluoro-5-[1-(2H-pyrazol-3-yl)-ethylamino]-phenyl}-3,5,5,6-tetramethyl-5,6-dihydro-3H-pyrimidin-4-one]
4 | 36 nM | CCC1CC(Nc2ccc(F)c([C@@]3(C)N=C(N)N(C)C(=O)C3(C)C)c2)c2ccccc21 (stereo partly drawn) [Example 113, (S)-2-Amino-6-[5-(3-ethyl-indan-1-ylamino)-2-fluoro-phenyl]-3,5,5,6-tetramethyl-5,6-dihydro-3H-pyrimidin-4-one]
5 | 977 nM | CN1C(=O)C(C)(C)[C@@](C)(c2cc(NC3CCC(CC(=O)O)C3)ccc2F)N=C1N (stereo partly drawn) [Example 115, 2-(3-(3-((S)-2-Amino-1,4,5,5-tetramethyl-6-oxo-1,4,5,6-tetrahydropyrimidin-4-yl)-4-fluorophenylamino)cyclopentyl)acetic acid]
6 | 2160 nM | CN1C(=O)C(C)(C)[C@@](C)(c2cc(NC3CCC(CC(=O)O)C3(C)C)ccc2F)N=C1N (stereo partly drawn) [Example 116, 2-(3-(3-((S)-2-Amino-1,4,5,5-tetramethyl-6-oxo-1,4,5,6-tetrahydropyrimidin-4-yl)-4-fluorophenylamino)-2,2-dimethylcyclopentyl)acetic acid]
7 | 226 nM | CN1C(=O)C(C)(C)[C@@](C)(c2cc(NC3[C@H]4[C@@H](C[C@H]3O)[C@@H]4C(=O)O)ccc2F)N=C1N (stereo partly drawn) [Example 117, (1S,3R,5R,6S)-2-(3-((S)-2-amino-1,4,5,5-tetramethyl-6-oxo-1,4,5,6-tetrahydropyrimidin-4-yl)-4-fluorophenylamino)-3-hydroxybicyclo[3.1.0]hexane-6-carboxylic acid]
8 | 2 nM | Cc1ccc(Cl)cc1Nc1ccc(F)c([C@@]2(C)N=C(N)N(C)C(=O)C2(C)C)c1 [Example 118, (S)-2-Amino-6-(5-(5-chloro-2-methylphenylamino)-2-fluorophenyl)-3,5,5,6-tetramethyl-5,6-dihydropyrimidin-4(3H)-one]
9 | 16 nM | CN1C(=O)C(C)(C)[C@@](C)(c2cc(Nc3ccccc3Cl)ccc2F)N=C1N [Example 119, (S)-2-Amino-6-(5-(2-chlorophenylamino)-2-fluorophenyl)-3,5,5,6-tetramethyl-5,6-dihydropyrimidin-4(3H)-one]
10 | 9 nM | COc1ccc(C(F)(F)F)cc1Nc1ccc(F)c([C@@]2(C)N=C(N)N(C)C(=O)C2(C)C)c1 [Example 121, (S)-2-Amino-6-(2-fluoro-5-(2-methoxy-5-(trifluoromethyl)phenylamino)phenyl)-3,5,5,6-tetramethyl-5,6-dihydropyrimidin-4(3H)-one]
11 | 46 nM | COC(=O)c1ccc(Nc2ccc(F)c([C@@]3(C)N=C(N)N(C)C(=O)C3(C)C)c2)c(OC)c1 [Example 123, (S)-Methyl-4-(3-(2-amino-1,4,5,5-tetramethyl-6-oxo-1,4,5,6-tetrahydropyrimidin-4-yl)-4-fluorophenylamino)-3-methoxybenzoate]
12 | 589 nM | CN1C(=O)C(C)(C)[C@@](C)(c2cc(Nc3ccn[nH]3)ccc2F)N=C1N [Example 124, (S)-6-(5-(1H-Pyrazol-5-ylamino)-2-fluorophenyl)-2-amino-3,5,5,6-tetramethyl-5,6-dihydropyrimidin-4(3H)-one hydrochloride]
13 | 28 nM | Cc1cc(C(C)Nc2ccc(F)c([C@@]3(C)N=C(N)N(C)C(=O)C3(C)C)c2)[nH]n1 (stereo partly drawn) [Example 125, (S)-2-Amino-6-{2-fluoro-5-[1-(5-methyl-2H-pyrazol-3-yl)-ethylamino]-phenyl}-3,5,5,6-tetramethyl-5,6-dihydro-3H-pyrimidin-4-one]
14 | 26 nM | Cc1nc(C(C)Nc2ccc(F)c([C@@]3(C)N=C(N)N(C)C(=O)C3(C)C)c2)sc1C (stereo partly drawn) [Example 126, (S)-2-Amino-6-{5-[1-(4,5-dimethyl-thiazol-2-yl)-ethylamino]-2-fluoro-phenyl}-3,5,5,6-tetramethyl-5,6-dihydro-3H-pyrimidin-4-one]
15 | 73 nM | CC(Nc1ccc(F)c([C@@]2(C)N=C(N)N(C)C(=O)C2(C)C)c1)c1nc2ccccc2s1 (stereo partly drawn) [Example 127, (S)-2-Amino-6-[5-(1-benzothiazol-2-yl-ethylamino)-2-fluoro-phenyl]-3,5,5,6-tetramethyl-5,6-dihydro-3H-pyrimidin-4-one]
16 | 3050 nM | COc1ccc(C(=O)O)cc1Nc1ccc(F)c([C@@]2(C)N=C(N)N(C)C(=O)C2(C)C)c1 [Example 129, (S)-3-(3-(2-amino-1,4,5,5-tetramethyl-6-oxo-1,4,5,6-tetrahydropyrimidin-4-yl)-4-fluorophenylamino)-4-methoxybenzoic acid]

Row | IC50 | Structure (SMILES)
17 | 256 nM | CN1C(=O)C(C)(C)[C@@](C)(c2cc(NC(=O)C3(C)COC3)ccc2F)N=C1N [Example 131]
18 | 54 nM | CN1C(=O)C(C)(C)[C@@](C)(c2cc(NC3COC3)ccc2F)N=C1N [Example 132, (S)-2-Amino-6-[2-fluoro-5-(oxetan-3-ylamino)-phenyl]-3,5,5,6-tetramethyl-5,6-dihydro-3H-pyrimidin-4-one]
19 | 41 nM | CN1C(=O)C(C)(C)[C@@](C)(c2cc(NC3COc4cc(Cl)ccc43)ccc2F)N=C1N (stereo partly drawn) [Example 133, (S)-2-Amino-6-[5-(6-chloro-2,3-dihydro-benzofuran-3-ylamino)-2-fluoro-phenyl]-3,5,5,6-tetramethyl-5,6-dihydro-3H-pyrimidin-4-one]
20 | 734 nM | CN1C(=O)C(C)(C)[C@@](C)(c2cc(NC(=O)C3(O)CC3)ccc2F)N=C1N [Example 134, 1-Hydroxy-cyclopropanecarboxylic acid [3-((S)-2-amino-1,4,5,5-tetramethyl-6-oxo-1,4,5,6-tetrahydro-pyrimidin-4-yl)-4-fluoro-phenyl]-amide]
21 | 1 nM | CN1C(=O)C(C)(C)[C@@](C)(c2cc(NC3CCCC3C#N)ccc2F)N=C1N (stereo partly drawn) [Example 135, 2-[3-((S)-2-Amino-1,4,5,5-tetramethyl-6-oxo-1,4,5,6-tetrahydro-pyrimidin-4-yl)-4-fluoro-phenylamino]-cyclopentanecarbonitrile]
22 | 2000 nM | CN1C(=O)C(C)(C)[C@@](C)(c2cc(NC3CCc4c(C(=O)O)cccc43)ccc2F)N=C1N (stereo partly drawn) [Example 136, 1-[3-((S)-2-Amino-1,4,5,5-tetramethyl-6-oxo-1,4,5,6-tetrahydro-pyrimidin-4-yl)-4-fluoro-phenylamino]-indan-4-carboxylic acid]
23 | 124 nM | CC(=O)N1CC(Nc2ccc(F)c([C@@]3(C)N=C(N)N(C)C(=O)C3(C)C)c2)c2ccc(F)cc21 (stereo partly drawn) [Example 137, (S)-6-[5-(1-Acetyl-6-fluoro-2,3-dihydro-1H-indol-3-ylamino)-2-fluoro-phenyl]-2-amino-3,5,5,6-tetramethyl-5,6-dihydro-3H-pyrimidin-4-one]
24 | 500 nM | CN1C(=O)C(C)(C)[C@@](C)(c2cc(Nc3cccnc3)ccc2F)N=C1N [Example 138, (S)-2-Amino-6-(2-fluoro-5-(pyridin-3-ylamino)phenyl)-3,5,5,6-tetramethyl-5,6-dihydropyrimidin-4(3H)-one]
25 | 31 nM | CN1C(=O)C(C)(C)[C@@](C)(c2cc(NC(=O)C(C)(O)c3ccccc3)ccc2F)N=C1N (stereo partly drawn) [Example 139, N-[3-((S)-2-Amino-1,4,5,5-tetramethyl-6-oxo-1,4,5,6-tetrahydro-pyrimidin-4-yl)-4-fluoro-phenyl]-2-hydroxy-2-phenyl-propionamide]
26 | 47 nM | CN1C(=O)C(C)(C)[C@@](C)(c2cc(NC3CCOc4cc(F)ccc43)ccc2F)N=C1N (stereo partly drawn) [Example 140, (S)-2-Amino-6-[2-fluoro-5-(7-fluoro-chroman-4-ylamino)-phenyl]-3,5,5,6-tetramethyl-5,6-dihydro-3H-pyrimidin-4-one]
27 | 332 nM | CN1C(=O)C(C)(C)[C@@](C)(c2cc(NC(=O)C(C)(O)c3ccc(Cl)cc3)ccc2F)N=C1N (stereo partly drawn) [Example 141, N-[3-((S)-2-Amino-1,4,5,5-tetramethyl-6-oxo-1,4,5,6-tetrahydro-pyrimidin-4-yl)-4-fluoro-phenyl]-2-(4-chloro-phenyl)-2-hydroxy-propionamide]
28 | 89 nM | CN1C(=O)C(C)(C)[C@@](C)(c2cc(NC(=O)[C@@](C)(O)C(F)(F)F)ccc2F)N=C1N [Example 142, (R)—N-(3-((S)-2-amino-1,4,5,5-tetramethyl-6-oxo-1,4,5,6-tetrahydropyrimidin-4-yl)-4-fluorophenyl)-3,3,3-trifluoro-2-hydroxy-2-methylpropanamide]
29 | 44 nM | CN1C(=O)C(C)(C)[C@@](C)(c2cc(NC(=O)[C@](C)(O)C(F)(F)F)ccc2F)N=C1N [Example 143, (S)—N-(3-((S)-2-amino-1,4,5,5-tetramethyl-6-oxo-1,4,5,6-tetrahydropyrimidin-4-yl)-4-fluorophenyl)-3,3,3-trifluoro-2-hydroxy-2-methylpropanamide]
30 | 3 nM | CN1C(=O)C(C)(C)[C@@](C)(c2cc(NC3CS(=O)(=O)c4ccccc43)ccc2F)N=C1N (stereo partly drawn) [Example 144, (S)-2-Amino-6-[5-(1,1-dioxo-2,3-dihydro-1H-1-benzo[b]thiophen-3-ylamino)-2-fluoro-phenyl]-3,5,5,6-tetramethyl-5,6-dihydro-3H-pyrimidin-4-one]
31 | 14 nM | CN1C(=O)C(C)(C)[C@@](C)(c2cc(Nc3cc(F)ccc3F)ccc2F)N=C1N [Example 145, (S)-2-Amino-6-[5-(2,5-difluoro-phenylamino)-2-fluoro-phenyl]-3,5,5,6-tetramethyl-5,6-dihydro-3H-pyrimidin-4-one]
